What was measured:
C57BL/6J mice = test: Free-choice 10% ethanol/water drinking, Example 1; assay type: in vivo
Text: Animals (C57BL/6J mice) were offered two options for drinking water, one bottle with pure water, and the other bottle containing a 10% ethanol/water mix, both of which were available “free choice” from Day 1 of the experiment. […] In this experiment, as the mice became accustomed to the 10% ethanol mix offered, they began to drink more and more of the ethanol mix, so that when their liquid consumption was plotted as a ratio of 10% ethanol/water, the ratio quickly became greater than 1 (more 10% ethanol than pure water). The mice were allowed to establish a baseline consumption pattern, and after 30 Days, 5 cages consistently consumed more of the ethanol mix than pure water.
Beginning on Day 33, three cages were treated with Spexin at 25 micrograms/kg/day in 1×PBS; via IP injection (cages 1, 4, and 10). Mice were administered the 14 amino acid Spexin peptide with carboxy terminal amidation: Asn-Trp-Thr-Pro-Gln-Ala-Met-Leu-Tyr-Leu-Lys-Gly-Ala-Gln-NH2 (SEQ ID NO: 4; available from Phoenix Pharmaceuticals, Catalog No. 023-81). The other two cages (2 and 7) were injected with an equal volume of vehicle according to the same schedule. Animals were injected for 5 days (Days 33 through 37), then given two days off (Days 38 and 39), then injected again with Spexin for two more days (days 40 and 41). […]

male C57BL/6J mice = test: Free-choice 10% ethanol vs water intake, Example 2; assay type: in vivo
Method: To test this hypothesis, 5 groups of 5 male C57BL/6J mice (25 total) were housed for 40 days in plastic cages with 2 water bottles each: one containing water and the other 10% ethanol in water (10% ethanol). Fluids were available “free choice”, and intake from each bottle was recorded daily.
Over the 1st week, 10% ethanol and water were consumed at a mean ratio of 0.80±0.32:1.0. Intake of 10% ethanol then increased, plateauing at a 10% ethanol:water ratio of 2.0±0.17:1.0 by Days 22-30. This was assigned a value of 100% as baseline for the subsequent studies. Starting on Day 31, 15 mice were injected with Spexin in 1×PBS 25 μg/kg in PBS i.p. daily for 3 days. Mice were administered the 14 amino acid Spexin peptide with carboxy terminal amidation: Asn-Trp-Thr-Pro-Gln-Ala-Met-Leu-Tyr-Leu-Lys-Gly-Ala-Gln-NH2 (SEQ ID NO: 4; available from Phoenix Pharmaceuticals, Catalog No. 023-81). The other 10 mice were injected with 1×PBS (vehicle) alone.

rat stomach explant = details: cited from earlier work
obese (DIO) mice = details: injected into obese (DIO) mice; cited from earlier work

Substance: Asn-Trp-Thr-Pro-Gln-Ala-Met-Leu-Tyr-Leu-Lys-Gly-Ala-Gln-NH2 [Spexin]
- ratio of 10% ethanol/water consumption (C57BL/6J mice; 25 micrograms/kg/day IP in 1xPBS, Days 33-37 and 40-41, cages 1, 4 and 10): dropped in all three cages
- ratio of 10% ethanol/water consumption (C57BL/6J mice; 25 micrograms/kg/day IP, cages 4 and 10): below 1
- 10% ethanol:water ratio, % of baseline (male C57BL/6J mice; 25 μg/kg i.p. daily, 1st day of Spexin administration, baseline ratio 2.0:1.0 = 100%): 80.7%
- 10% ethanol:water ratio, % of baseline (male C57BL/6J mice; 25 μg/kg i.p. daily, 2nd day of Spexin administration): 42.4%
- 10% ethanol:water ratio, % of baseline (male C57BL/6J mice; 25 μg/kg i.p. daily, 3rd day of Spexin administration): 42.4%
- 10% ethanol:water ratio, % of baseline (male C57BL/6J mice; 1st day post-Spexin): 100%
- 10% ethanol:water ratio, % of baseline (male C57BL/6J mice; 2nd day post-Spexin): 136%
- ethanol intake (male C57BL/6J mice; daily spexin injections, free choice): rapidly & significantly reduce ethanol intake
- contractile effects (rat stomach explant): demonstrates contractile effects
- weight loss (obese (DIO) mice): produces weight loss

Reference: US11154591B2, “Methods of treating alcohol abuse disorder” (THE TRUSTEES OF COLUMBIA UNIVERSITY IN THE CITY OF NEW YORK, priority 2016, dated 2021)
